We go through three compounds from paper PMC10940318, “Targeted intracellular delivery of dimeric STINGa by two pHLIP peptides for treatment of solid tumors” (Frontiers in Pharmacology, 2024).

Broadly, the EC50 is the midpoint of the concentration-response curve.

The target in data set [1] is T1, human STING WT protein (Homo sapiens, UniProt Q86WV6).
T1 construct: purchased Cisbio
Nature of the data set: HTRF competitive binding to STING protein (human STING WT binding kit). To be noted: HTRF competitive assay, 6His-tagged human STING WT, d2-labelled ligand, 3 h RT; EC50 in method, IC50 in Fig. S1; read-out: binding affinity to STING protein. How it is done:
STING WT ligand d2 reagent was premixed with 6His Tb antibodies, and it was added to each well and the plate was incubated for 3 h at RT. Fluorescence intensities at 616 nm and 665 nm excited at […] were recorded on the SpectraMax ID5 plate reader (Molecular Devices). The homogeneous time resolved fluorescence (HTRF) ratio was calculated to establish the binding of each agent to the STING protein and to calculate EC50.

Data set [2] has as its system THP-1-Blue-ISG cells polarized into M2-type macrophages. Nature of the data set: Activation of IFN (IRF-SEAP reporter) in M2-polarized macrophages. Format: cell-based, human. Particulars: THP1-Blue-ISG cells polarized by PMA, IL-4/IL-13, 2 h in DMEM without FBS pH 6.9, then 48 h, QUANTI-Blue, absorbance 655 nm, read-out: EC50 of activation of IRF signaling. The procedure: THP-1-Blue™-ISG cells (Invivogen) expressing an interferon (IFN) regulatory factor (IRF)-inducible secreted embryonic alkaline phosphatase (SEAP) reporter construct were used. Cells were maintained in RPMI growth medium supplemented with L-glutamine, sodium pyruvate, 10% fetal bovine serum (FBS), normocin and ciprofloxacin hydrochloride in a humidified atmosphere of 5% CO2 and 95% air at 37°C. Cells were seeded in 96-well plates at a density of 75,000 cells/well. To generate M2 polarized macrophages, cells were treated first with 185 ng/mL phorbol 12-myristate 13-acetate (PMA) for 6 h and then 20 ng/mL of interleukin 4 (IL-4) and 20 ng/mL of interleukin 13 (IL-13) (both from PeproTech) were added for another 16 h of treatment. […] After a 2-h incubation, an equal volume of RPMI supplemented with 20% heat-inactivated FBS was added, and cells were incubated for another 48 h. SEAP activity was accessed using the QUANTI-Blue™ Solution (Invivogen) to evaluate type I interferon protein levels: 150 μL of the colorimetric reagent was added to 50 μL of cell supernatant for 30 min, 37°C, followed by absorption measurement at 655 nm.

A short description of data set [3]: Stability in mouse plasma. To be noted: BALB/c mouse plasma, 200 µM. The procedure:
Plasma proteins were precipitated by methanol (1:5 volume ratio of plasma to methanol) and centrifuged for 10 min at […]. The supernatant was collected and analyzed by HPLC using a Zorbax SB-C18 4.6 × 250 mm, 5 μm column with a gradient from 20% to 80% acetonitrile in water containing 0.05% TFA. Chromatograms were recorded at 220 nm, 280 nm and 325 nm.

Data set [4] deals with CT26 murine colorectal cancer tumors. Nature of the data set: Treatment of CT26 tumors in mice. Format: in vivo, Balb/c mice. To be noted: two IP injections of 300 µM 500 µL on days 1 and 3; CT26 tumors. How it is done:
For the treatment of CT26 tumors, 5 × 10^4 CT26 murine colorectal cancer cells (ATCC, CRL-2638) were injected subcutaneously (SQ) in 100 μL of growth medium into the right flank of female Balb/c mice ranging in age from 7 to 9 weeks (Envigo RMS, Inc.). […] The compounds were dissolved in DMSO as a stock solution and transferred to PBS (vehicle). The residual DMSO in the final solution injected into animals was less than 2%. Tumor volume and body weight were measured 3 times per week throughout the study. Measurements of tumors were performed using calipers, and the tumor volume (V) was calculated with the formula: V=0.52∙L∙W^2 where L is the length and W is the width of the measured tumor. Mice were removed from the study and euthanized when the tumor volume was greater than 2,000 mm^3.

Data set [5] can be described thus: Self-immolation kinetics of the S-S linker and payload release after DTT, by HPLC. Format: physicochemical. Particulars: DTT in 50 mM phosphate buffer, 150 mM NaCl, pH 7.4; HPLC at 0.5-48 h, UV 220/280/325 nm. The procedure:
Figure S3. Kinetics of self-immolation of 2pHLIP-dMSA. […] Starting 2pHLIP-dMSA is shown on A.
Figure S4. Self-immolation kinetics of pHLIP-mMSA. HPLC chromatograms recorded at 280 nm and 325 nm for pHLIP-mMSA treated with DTT dissolved in 50 mM phosphate buffer containing 150 mM NaCl pH 7.4 at different time points ([…]) after addition of DTT (A-G) and the retention time for mMSA (H) and pHLIP (I) are shown. Starting pHLIP-mMSA is shown on A.

Data set [6] is described as follows: Stability in human plasma. Format: in vitro ADME. To be noted: single donor human plasma, 200 µM, 0-24 h at 37°C, methanol precipitation, HPLC C18, UV 220/280/325 nm.
Experimental: Plasma proteins were precipitated by methanol (1:5 volume ratio of plasma to methanol) and centrifuged for 10 min at 13.4 rpm. The supernatant was collected and analyzed by HPLC using a Zorbax SB-C18 4.6 × 250 mm, 5 μm column with a gradient from 20% to 80% acetonitrile in water containing 0.05% TFA. Chromatograms were recorded at 220 nm, 280 nm and 325 nm.
The nature of data set [7]: Blood clearance (PK) by whole blood fluorescence imaging. Format: in vivo, Balb/c mice. Particulars: single RO injection of 2(ICG-pHLIP)-dMSA 50 µM 100 µL, CT26 tumor-bearing female Balb/c mice; whole blood fluorescence, exponential fit. How it is done: For biodistribution studies 5 × 10^4 of CT26 cancer cells were injected SQ in 100 µL of growth medium into the right flank of female Balb/c mice and tumors were grown until they reached 150–250 mm^3 in volume. Then a single retro-orbital (RO) injection of 50 μM 100 μL of 2(ICG-pHLIP)-dMSA was performed. Animals were euthanized at 5 min, 1, 4, 24, 48, 72, and 120 h post-injection, blood was collected in K2 EDTA vacutainer blood collection tubes (BD), and necropsy was performed immediately after animals were euthanized. Blood, tumors and major organs (kidney, liver, spleen, pancreas, lung, heart, large and small intestines, bone, muscle, brain) were collected, and imaged ex vivo immediately after necropsy. Blood (200 µL) was imaged in 96-well plates with black bottom and walls.
(§1) The in vivo and ex vivo bright field and near-infrared fluorescent imaging employed a Stryker 1588 AIM endoscopic system with L10 AIM Light Source (808 nm excitation and collection of light in the range of approximately of 815–850 nm), and a 1588 AIM Camera using a 10 mm scope. The lens was kept at a fixed distance from the surface of the organs, within an enclosed (light-protected) area. Calibration curves converting laser and gain settings were established by imaging of pHLIP-ICG solution at different concentrations. The ex vivo fluorescence imaging of tissue specimens was performed using three different laser settings and six different gain settings. The digital fluorescence images were split into RGB channels, with the green channel being analyzed using ImageJ program to calculate the average fluorescence intensity. All average intensities were adjusted based on their capture settings and using calibration curves to present fluorescence intensities corresponding to the unified (the same) settings.

The subject of data set [8] is CT26 tumor. Nature of the data set: Biodistribution and tumor targeting by ex vivo NIR fluorescence imaging. Format: in vivo, Balb/c mice. Particulars: single RO injection 50 µM 100 µL; ex vivo fluorescence at 1-120 h. The procedure: For biodistribution studies 5 × 10^4 of CT26 cancer cells were injected SQ in 100 µL of growth medium into the right flank of female Balb/c mice and tumors were grown until they reached 150–250 mm^3 in volume. Then a single retro-orbital (RO) injection of 50 μM 100 μL of 2(ICG-pHLIP)-dMSA was performed. Animals were euthanized at 5 min, 1, 4, 24, 48, 72, and 120 h post-injection, blood was collected in K2 EDTA vacutainer blood collection tubes (BD), and necropsy was performed immediately after animals were euthanized. […]
as §1, with “The lens was kept at a fixed distance from the surface of the organs, within an enclosed (light-protected) area. Calibration curves converting laser and gain settings were established by imaging of pHLIP-ICG solution at different concentrations.” left out

Some results are limits rather than exact numbers.

T1 sequence (Q86WV6 whole entry): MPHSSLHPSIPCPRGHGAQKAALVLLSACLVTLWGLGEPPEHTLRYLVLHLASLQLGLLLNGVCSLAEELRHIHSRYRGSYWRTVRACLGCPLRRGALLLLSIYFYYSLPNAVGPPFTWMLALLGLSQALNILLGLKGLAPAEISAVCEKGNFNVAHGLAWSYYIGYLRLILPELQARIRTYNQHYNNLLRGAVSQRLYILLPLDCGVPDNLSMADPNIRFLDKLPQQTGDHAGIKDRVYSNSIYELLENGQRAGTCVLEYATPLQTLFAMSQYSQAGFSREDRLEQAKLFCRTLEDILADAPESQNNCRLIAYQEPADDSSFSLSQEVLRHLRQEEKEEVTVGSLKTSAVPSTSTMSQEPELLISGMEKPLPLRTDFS

Take `COc1cc2cc(C(=O)CCC(=O)O)sc2cc1OC` [mMSA, reference compound]: the IC50 in data set [1] turned out to be 7.5 µM. In data set [2], the concentration for a half-maximal effect (EC50) was found to be 2.2 µM. The “time within which the cargo released from pHLIP underwent degradation in mouse plasma” value in data set [3] (37°C, HPLC C18, UV) is ≤ 24 h. Also, the “therapeutic activity on animals (in words)” value in data set [4] is “did not demonstrate any activity”.
For “ADQDNPWRAYLDLLFPTDTLLLDLLWCG [pHLIP-mMSA]”, the “time to completion of linker self-immolation and release of payload in its original form” value in data set [5] is listed as ≤ 24 h. Further, the “stability in human plasma (in words)” value in data set [6] is given as “very high”. In data set [3] (0-24 h at 37°C, methanol precipitation, HPLC C18, UV 220/280/325 nm), the “stability in mouse plasma (in words)” value is “low”.
Take “AKDQDNPWRAYLDLLFPTDTLLLDLLWCG [2(ICG-pHLIP)-dMSA, fluorescent version of 2pHLIP-dMSA with ICG dye on a lysine near the N-terminus of each pHLIP]”: the blood clearance half-life in data set [7] came to 32.2 h. In data set [8], the “accumulation in the tumor (in words)” value is “significant accumulation of the agent in the tumor from 1 h and up to 48 h”; the “organ and tissue clearances (in words)” value is “slow”.
